From ChEMBL document CHEMBL4190243, “Natural alkaloids as P-gp inhibitors for multidrug resistance reversal in cancer” (Eur J Med Chem, 2017)

Legend:
P388 = experiment: Potentiation of doxorubicin-induced antitumor activity against mouse P388/DOX25 cells implanted in mouse assessed as increase in mouse survival at 1.6 mg/kg, ip; assay type: functional
[1] = Inhibition of P-gp ATPase activity in rat AS30-D/COL10 cell plasma membrane vesicles
[2] = Inhibition of P-gp in rat AS30-D/COL10 cell plasma membrane vesicles assessed as reduction in [3H]VBL transport
KB-V1 [3] = experiment: Potentiation of vinblastine-induced antitumor activity against human KBV1 cells xenografted in Ncr nude mouse assessed as growth inhibition at 0.136 mmol/kg by hallow fiber assay; assay type: functional; conditions: read-out: GI
[4] = Potentiation of vinblastine-induced antitumor activity against human KB-8-5 cells xenografted in Ncr nude mouse assessed as growth inhibition at 0.13 mmol/kg by hallow fiber assay; assay type: functional; conditions: read-out: GI
[5] = Displacement of [3H]vinblastine from P-gp in human KBV1 cell membrane vesicles; assay type: cell membranes
KB-V1 [6] = experiment: Potentiation of vinblastine-induced antitumor activity against human KBV1 cells xenografted in Ncr nude mouse assessed as growth inhibition at 0.13 mmol/kg by hallow fiber assay; assay type: functional; conditions: read-out: GI
Homo sapiens [7] = organism: Homo sapiens; experiment: Inhibition of P-gp in human Caco2 cells assessed as reduction in digoxin efflux at 4 uM relative to control; assay type: cell-based
MRP2 (ABCC2) = MRP2 (ABCC2) (Homo sapiens, UniProt Q92887); experiment: Inhibition of MRP2 in human Caco2 cells assessed as reduction in pravastatin sodium efflux at 4 uM relative to control; assay type: cell-based; conditions: Caco-2 cells, probe pravastatin sodium
Chain of MRP2 (ABCC2) (Q92887 whole entry): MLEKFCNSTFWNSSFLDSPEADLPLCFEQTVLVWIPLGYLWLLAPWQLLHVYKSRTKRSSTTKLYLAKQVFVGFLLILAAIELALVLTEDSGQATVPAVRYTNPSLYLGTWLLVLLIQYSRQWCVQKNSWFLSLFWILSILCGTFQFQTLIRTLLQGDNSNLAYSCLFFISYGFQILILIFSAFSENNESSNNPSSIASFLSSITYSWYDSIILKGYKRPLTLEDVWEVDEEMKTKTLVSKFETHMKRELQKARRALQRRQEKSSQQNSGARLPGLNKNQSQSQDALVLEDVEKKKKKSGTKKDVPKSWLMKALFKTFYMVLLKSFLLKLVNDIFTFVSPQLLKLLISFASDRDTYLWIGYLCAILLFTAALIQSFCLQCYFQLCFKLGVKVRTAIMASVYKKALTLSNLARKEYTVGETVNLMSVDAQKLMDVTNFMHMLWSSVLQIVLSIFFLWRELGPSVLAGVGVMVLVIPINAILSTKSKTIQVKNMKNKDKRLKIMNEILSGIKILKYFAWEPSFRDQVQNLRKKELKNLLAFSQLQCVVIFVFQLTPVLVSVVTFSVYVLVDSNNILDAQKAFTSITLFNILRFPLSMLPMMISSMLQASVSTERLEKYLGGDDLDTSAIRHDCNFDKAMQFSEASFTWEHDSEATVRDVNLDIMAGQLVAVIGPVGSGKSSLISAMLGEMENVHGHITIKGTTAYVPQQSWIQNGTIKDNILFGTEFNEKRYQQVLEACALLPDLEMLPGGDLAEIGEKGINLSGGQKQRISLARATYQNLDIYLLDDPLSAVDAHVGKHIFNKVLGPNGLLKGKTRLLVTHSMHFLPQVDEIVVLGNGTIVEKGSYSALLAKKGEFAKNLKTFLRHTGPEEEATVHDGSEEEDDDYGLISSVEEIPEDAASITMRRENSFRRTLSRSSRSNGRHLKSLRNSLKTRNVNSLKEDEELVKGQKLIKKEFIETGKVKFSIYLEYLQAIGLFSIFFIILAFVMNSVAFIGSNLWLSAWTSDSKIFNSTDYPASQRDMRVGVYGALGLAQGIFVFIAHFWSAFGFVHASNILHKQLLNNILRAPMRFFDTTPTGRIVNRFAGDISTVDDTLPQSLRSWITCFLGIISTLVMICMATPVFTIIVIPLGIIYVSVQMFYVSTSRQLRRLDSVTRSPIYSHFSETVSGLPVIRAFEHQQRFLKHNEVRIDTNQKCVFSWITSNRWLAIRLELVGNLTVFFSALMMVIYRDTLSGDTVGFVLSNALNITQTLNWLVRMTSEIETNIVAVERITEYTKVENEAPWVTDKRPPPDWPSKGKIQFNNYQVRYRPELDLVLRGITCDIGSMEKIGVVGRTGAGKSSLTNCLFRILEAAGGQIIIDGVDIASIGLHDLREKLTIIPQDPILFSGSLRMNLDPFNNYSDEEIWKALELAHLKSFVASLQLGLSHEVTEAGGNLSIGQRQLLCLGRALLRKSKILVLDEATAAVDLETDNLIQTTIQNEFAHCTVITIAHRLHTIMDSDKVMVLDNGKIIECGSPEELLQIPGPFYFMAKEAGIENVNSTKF

[8] = Inhibition of [125I]IAAP labeling to human P-gp expressed in baculovirus infected insect cell membranes after 10 mins
[9] = Inhibition of P-gp in human MCF7/DX1 cells assessed as doxorubicin accumulation after 30 to 40 mins by FACS analysis; assay type: cell-based
[10] = Inhibition of P-gp in human MCF7/DX1 cells assessed as BODIPY-FL-verapamil accumulation after 30 to 40 mins by FACS analysis; assay type: cell-based
[11] = Inhibition of P-gp in human MCF7/DX1 cells assessed as [3H]daunomycin accumulation after 40 mins by liquid scintillation counting method; assay type: cell-based
[12] = Inhibition of P-gp in human MCF7/DX1 cells assessed as […] Rh123 accumulation after 30 to 40 mins by FACS analysis; assay type: cell-based
[13] = biological target: T1, Broad substrate specificity ATP-binding cassette transporter ABCG2 (Homo sapiens, UniProt Q9UNQ0); experiment: Inhibition of BCRP (unknown origin)
T1 sequence (Q9UNQ0 whole entry): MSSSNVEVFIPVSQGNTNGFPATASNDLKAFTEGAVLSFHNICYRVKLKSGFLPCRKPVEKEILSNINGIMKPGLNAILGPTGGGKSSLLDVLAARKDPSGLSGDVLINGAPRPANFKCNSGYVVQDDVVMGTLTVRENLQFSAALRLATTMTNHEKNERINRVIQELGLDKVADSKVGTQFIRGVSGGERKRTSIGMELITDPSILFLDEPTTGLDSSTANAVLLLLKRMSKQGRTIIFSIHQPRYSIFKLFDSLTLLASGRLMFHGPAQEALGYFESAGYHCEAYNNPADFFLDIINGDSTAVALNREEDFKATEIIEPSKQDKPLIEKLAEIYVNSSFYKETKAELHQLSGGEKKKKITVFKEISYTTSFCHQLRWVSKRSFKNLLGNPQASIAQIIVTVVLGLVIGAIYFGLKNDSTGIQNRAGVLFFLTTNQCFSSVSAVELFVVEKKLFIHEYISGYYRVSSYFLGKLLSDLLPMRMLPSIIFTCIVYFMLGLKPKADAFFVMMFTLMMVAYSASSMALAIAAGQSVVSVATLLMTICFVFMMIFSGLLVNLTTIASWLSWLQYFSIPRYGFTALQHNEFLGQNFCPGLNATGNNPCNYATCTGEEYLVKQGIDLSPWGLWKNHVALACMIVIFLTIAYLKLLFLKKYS

[14] = biological target: T2, ATP-dependent translocase ABCB1 (Homo sapiens, UniProt P08183); experiment: Inhibition of human MDR1 ATPase activity expressed in baculovirus infected insect cells preincubated for 30 mins followed by ATP addition measured after 20 mins by colorimetric method
T2 sequence (P08183 whole entry): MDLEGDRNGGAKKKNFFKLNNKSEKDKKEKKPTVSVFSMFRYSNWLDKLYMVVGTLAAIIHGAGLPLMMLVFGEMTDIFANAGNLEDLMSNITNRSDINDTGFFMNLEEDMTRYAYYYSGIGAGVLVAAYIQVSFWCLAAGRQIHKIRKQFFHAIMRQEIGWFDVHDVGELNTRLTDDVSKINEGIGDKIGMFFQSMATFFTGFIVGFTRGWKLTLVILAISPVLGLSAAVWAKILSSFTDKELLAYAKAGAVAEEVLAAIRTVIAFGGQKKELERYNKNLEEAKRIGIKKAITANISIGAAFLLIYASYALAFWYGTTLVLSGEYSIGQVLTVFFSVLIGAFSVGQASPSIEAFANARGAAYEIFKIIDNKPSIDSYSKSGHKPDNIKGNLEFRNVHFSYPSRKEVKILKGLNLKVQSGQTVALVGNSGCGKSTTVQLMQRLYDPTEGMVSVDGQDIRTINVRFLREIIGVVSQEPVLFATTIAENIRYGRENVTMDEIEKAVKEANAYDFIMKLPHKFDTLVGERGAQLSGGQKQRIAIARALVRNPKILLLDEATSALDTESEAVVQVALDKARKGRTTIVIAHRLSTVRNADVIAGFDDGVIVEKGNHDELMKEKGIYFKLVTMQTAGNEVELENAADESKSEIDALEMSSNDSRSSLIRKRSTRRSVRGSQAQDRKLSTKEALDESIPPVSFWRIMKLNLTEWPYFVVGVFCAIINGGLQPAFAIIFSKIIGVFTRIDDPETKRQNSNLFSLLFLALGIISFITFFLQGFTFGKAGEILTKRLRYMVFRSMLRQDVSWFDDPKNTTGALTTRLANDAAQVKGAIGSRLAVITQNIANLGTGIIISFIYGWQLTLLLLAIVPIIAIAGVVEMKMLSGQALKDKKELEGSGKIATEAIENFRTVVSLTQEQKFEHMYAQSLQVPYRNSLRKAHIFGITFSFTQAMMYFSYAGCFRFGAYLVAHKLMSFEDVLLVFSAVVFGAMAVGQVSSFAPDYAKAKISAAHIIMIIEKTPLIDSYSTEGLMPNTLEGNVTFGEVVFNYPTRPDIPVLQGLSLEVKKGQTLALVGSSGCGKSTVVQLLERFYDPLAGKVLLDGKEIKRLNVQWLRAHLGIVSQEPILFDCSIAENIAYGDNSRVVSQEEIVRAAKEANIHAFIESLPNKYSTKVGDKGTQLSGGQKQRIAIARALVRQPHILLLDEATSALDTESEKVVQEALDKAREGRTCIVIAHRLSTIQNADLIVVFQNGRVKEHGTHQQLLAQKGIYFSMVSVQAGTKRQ

[15] = biological target: T2, ATP-dependent translocase ABCB1; experiment: Inhibition of [125I]IAAP labeling to human MDR1 expressed in baculovirus infected insect cell membranes by electrophoresis method
[16] = biological target: T2, ATP-dependent translocase ABCB1; experiment: Displacement of 8-azido[alpha-32P]ATP from human MDR1 expressed in baculovirus infected insect cell membranes by phosphorimaging method
KB-V1 [17] = experiment: Downregulation of P-gp expression in human MDR KBV1 cells after 24 hrs relative to control; assay type: functional
[18] = Terminal phase half life in healthy human at 30 mg/kg, iv by LC-MS/MS method; assay type: ADME, organism-based; conditions: in vivo, read-out: beta t1/2 (converted)
[19] = Tmax in male Sprague-Dawley rat at 50 mg/kg, po by LC-MS/MS method; assay type: ADME, organism-based; conditions: in vivo
[20] = Primary phase half life in healthy human at 30 mg/kg, iv by LC-MS/MS method; assay type: ADME, organism-based; conditions: in vivo, read-out: alphat1/2
[21] = Half life in female Sprague-Dawley rat at 50 mg/kg, po by LC-MS/MS method; assay type: ADME, organism-based; conditions: in vivo
[22] = Potentiation of doxorubicin-induced antitumor activity against human KBv200 cells xenografted in Balb/c nude mouse assessed as tumor growth inhibition at 10 mg/kg, ip once daily for 12 days (reference value: 11.6%); assay type: functional; conditions: 288 h, read-out: TGI
[23] = Cmax in female Sprague-Dawley rat at 50 mg/kg, po by LC-MS/MS method; assay type: ADME, organism-based; design: dose 50 mg/kg, route oral; conditions: in vivo
[24] = Tmax in female Sprague-Dawley rat at 50 mg/kg, po by LC-MS/MS method; assay type: ADME, organism-based; conditions: in vivo
[25] = Half life in male Sprague-Dawley rat at 50 mg/kg, po by LC-MS/MS method; assay type: ADME, organism-based; conditions: in vivo
[26] = Cytotoxicity against human KBv200 cells after 72 hrs by MTT assay; assay type: functional, cell-based; conditions: KBv200, 72 h
[27] = Potentiation of epirubicin-induced antitumor activity against human KBv200 cells in xenograft model assessed as tumor growth inhibition at 10 mg/kg, ip (reference value: 29%); assay type: functional; conditions: read-out: TGI
Rattus norvegicus [28] = experiment: AUC (0 to 72 hrs) in female Sprague-Dawley rat at 50 mg/kg, po by LC-MS/MS method; assay type: ADME, organism-based; design: time < 72 hr, dose 50 mg/kg, route oral; conditions: in vivo
[29] = Cmax in male Sprague-Dawley rat at 50 mg/kg, po by LC-MS/MS method; assay type: ADME, organism-based; design: dose 50 mg/kg, route oral; conditions: in vivo
Rattus norvegicus [30] = experiment: AUC (0 to 72 hrs) in male Sprague-Dawley rat at 50 mg/kg, po by LC-MS/MS method; assay type: ADME, organism-based; design: dose 50 mg/kg, time < 72 hr, route oral; conditions: in vivo
Homo sapiens [31] = experiment: AUC in healthy human at 30 mg/kg, iv by LC-MS/MS method; assay type: ADME, organism-based; conditions: in vivo
[32] = Half life in rat at 50 mg/kg, po by LC-MS/MS method; assay type: ADME, organism-based; conditions: in vivo
[33] = Potentiation of vincristine-induced antitumor activity against human KBv200 cells xenografted in Balb/c nude mouse assessed as tumor growth inhibition at 30 mg/kg, ip every two days (reference value: 20%); assay type: functional; conditions: 48 h, read-out: TGI
[34] = Cmax in rat at 50 mg/kg, po by LC-MS/MS method; assay type: ADME, organism-based; design: dose 50 mg/kg, route oral; conditions: in vivo
Rattus norvegicus [35] = experiment: AUC (0 to 72 hrs) in rat at 50 mg/kg, po by LC-MS/MS method; assay type: ADME, organism-based; design: time < 72 hr, dose 50 mg/kg, route oral; conditions: in vivo
Homo sapiens [36] = organism: Homo sapiens; experiment: Inhibition of P-gp in human MCF7/DOX cells assessed as potentiation of doxorubicin-induced cytotoxicity by measuring fold reduction in doxorubicin IC50 at 2.5 uM; assay type: cell-based
NCI/ADR-RES = experiment: Potentiation of doxorubicin-induced antitumor activity against human MCF7/ADR cells xenografted in nude mouse assessed as tumor growth inhibition at 30 mg/kg, ip every two days (reference value: -20%); assay type: functional; conditions: 48 h, read-out: TGI
Homo sapiens [37] = organism: Homo sapiens; experiment: Inhibition of P-gp in human MCF7/DOX cells assessed as potentiation of doxorubicin-induced cytotoxicity by measuring fold reduction in doxorubicin IC50 at 5 uM; assay type: cell-based
[38] = Potentiation of paclitaxel-induced antitumor activity against human KBv200 cells in xenograft model assessed as tumor growth inhibition at 35 mg/kg, ip (reference value: 13%); assay type: functional; conditions: read-out: TGI
[39] = Tmax in rat at 50 mg/kg, po by LC-MS/MS method; assay type: ADME, organism-based; conditions: in vivo
[40] = Half life in patient with advanced stage of cancer at 500 mg/m2 by HPLC method; assay type: ADME, organism-based; conditions: human, in vivo

## C=C[C@]1(C)C[C@@H](OC(=O)CSCCN(CC)CC)[C@]2(C)[C@H](C)CC[C@]3(CCC(=O)[C@H]32)[C@@H](C)[C@@H]1O [TIAMULIN]
P388
  survival at 1.6 mg/kg: 29%
[1]
  IC50: 540 nM
[2]
  IC50: 6200 nM

## COc1cc(/C=C/C(=O)OC2C(O)C3CC(OC(=O)c4cc(OC)c(OC)c(OC)c4)CC2N3C)cc(OC)c1OC (stereo not drawn)
KB-V1 [3]
  inhibition in vivo at 136 µmol/kg: ≤ 77.7%
[4]
  inhibition in vivo at 130 µmol/kg: ≤ 75%
[5]
  Ki: 7300 nM
KB-V1 [6]
  inhibition in vivo at 130 µmol/kg: ≤ 75%

## O=C1c2ccccc2-n2c1nc1ccccc1c2=O [TRYPTANTHRIN]
Homo sapiens [7]
  inhibition: > 30%
MRP2 (ABCC2)
  inhibition at 4 µM: > 30%

## COc1ccc2c3c1O[C@@H]1C[C@H](OC(=O)CCCCCCCCC(=O)O[C@H]4C=C[C@@]56CN(C)CCc7ccc(OC)c(c75)O[C@H]6C4)C=C[C@]31CN(C)CC2
[8]
  IC50: 500 nM
[9]
  IC50: 500 to 2000 nM
[10]
  IC50: 500 to 2000 nM
[11]
  IC50: 500 to 2000 nM
[12]
  IC50: 800 nM

## COC(=O)[C@H]1[C@H]2C[C@@H]3c4[nH]c5cc(OC)ccc5c4CCN3C[C@H]2C[C@@H](OC(=O)c2cc(OC)c(OC)c(OC)c2)[C@@H]1OC [RESERPINE]
[13]
  IC50: 12600 nM

## Nc1ncnc2c1ncn2[C@@H]1O[C@H](COC(=O)c2ccc(S(=O)(=O)F)cc2)[C@@H](O)[C@H]1O
[14]
  IC50: 210 nM
[15]
  IC50: 170 nM
[16]
  IC50: 680 nM

## CN[C@@H]1C[C@H]2O[C@@](C)([C@@H]1OC)n1c3ccccc3c3c4c(c5c6ccccc6n2c5c31)C(=O)NC4 [STAUROSPORINE]
KB-V1 [17]
  Activity: 50%

## COc1ccc2cc1Oc1ccc(cc1)C[C@@H]1c3cc(c(OC)cc3CCN1C)Oc1c(OC)c(OC)c(Br)c3c1[C@H](C2)N(C)CC3
[18]
  half-life: 52 h
[19]
  Tmax: 3.67 h
[20]
  half-life: 0.5 h
[21]
  half-life: 18.2 h
[22]
  inhibition in vivo at 10 mg/kg: 39%
[23]
  Cmax: 835 ng/mL
[24]
  Tmax: 4.67 h
[25]
  half-life: 8.67 h
[26]
  IC50: 2000 nM
[27]
  inhibition in vivo at 10 mg/kg: 48%
Rattus norvegicus [28]
  AUC: 21827 µg/h/L
[29]
  Cmax: 607 ng/mL
Rattus norvegicus [30]
  AUC: 6116 µg/h/L
Homo sapiens [31]
  AUC: 64 µg/h/L

## COc1ccc2cc1Oc1ccc(cc1)C[C@@H]1c3cc(c(OC)cc3CCN1C)Oc1c(OC)c(OC)cc3c1[C@H](C2)N(C)CC3 [ISOTETRANDRINE]
[32]
  half-life: 20 h
[33]
  inhibition in vivo at 30 mg/kg: 62%
[34]
  Cmax: 237 ng/mL
Rattus norvegicus [35]
  AUC: 6279 µg/h/L
Homo sapiens [36]
  fold change (FC): 20
NCI/ADR-RES
  inhibition in vivo at 30 mg/kg: 58%
Homo sapiens [37]
  fold change (FC): 20
[38]
  inhibition in vivo at 35 mg/kg: 76%
[39]
  Tmax: 6 h
[40]
  half-life: 120 to 168 h
